# Test results taken from paper PMC5869712 (Scientific Reports, 2018).
# Like-named read-outs stand apart in the source and are kept apart here.
# Tests used:
# ERBB2 = biological target: T1, ERBB2 (Homo sapiens, UniProt P04626); assay: Cys-containing kinase family panel (EurofinsCerep); assay type: biochemical
# T1 construct: EurofinsCerep (contract assay service)
# IKKβ = biological target: T2, IKKβ (Homo sapiens, UniProt O14920); assay: Eurofins Kinase Profiler panel; assay type: biochemical; conditions: read-out: % inhibition (1μM), DMSO control=100%, lower=stronger
# T2 construct: purchased Eurofins KinaseProfiler (Eurofins Pharma Discovery Services UK, Dundee); JAK3 also ChemPartner
# IKKε = biological target: T3, IKKε (Homo sapiens, UniProt Q14164); assay: Eurofins Kinase Profiler panel; assay type: biochemical; conditions: read-out: % inhibition (1μM), DMSO control=100%, lower=stronger
# T3 construct: purchased Eurofins KinaseProfiler (Eurofins Pharma Discovery Services UK, Dundee); JAK3 also ChemPartner
# JNK1α1 = biological target: T4, JNK1α1 (Homo sapiens, UniProt P45983); assay: Eurofins Kinase Profiler panel; assay type: biochemical; conditions: read-out: % inhibition (1μM), DMSO control=100%, lower=stronger
# T4 construct: purchased Eurofins KinaseProfiler (Eurofins Pharma Discovery Services UK, Dundee); JAK3 also ChemPartner
# CDK1 = biological target: T5, CDK1 (Homo sapiens, UniProt P06493); assay: Eurofins Kinase Profiler panel; assay type: biochemical; conditions: read-out: % inhibition (1μM), DMSO control=100%, lower=stronger
# T5 construct: purchased Eurofins KinaseProfiler (Eurofins Pharma Discovery Services UK, Dundee); JAK3 also ChemPartner
# MKK6 = biological target: T6, MKK6 (Homo sapiens, UniProt P52564); assay: Eurofins Kinase Profiler panel; assay type: biochemical; conditions: read-out: % inhibition (1μM), DMSO control=100%, lower=stronger
# T6 construct: Eurofins Pharma Discovery Services UK Limited (Kinase Profiler service)
# [1] = tested on: EPO-induced JAK/STAT5 phosphorylation in HEL cells (JAK2); assay: STAT5 phosphorylation induced by EPO in HEL cells, Western blot
# [2] = tested on: IFN-γ-induced JAK/STAT1 phosphorylation in U2OS cells (JAK1/JAK2); assay: STAT1 phosphorylation induced by IFN-γ in U2OS cells, Western blot; conditions: for IC50: Homo sapiens
# [3] = tested on: GM-CSF-induced JAK/STAT5 phosphorylation in TF-1 cells (JAK2); assay: STAT5 phosphorylation induced by GM-CSF in TF-1 cells, Western blot
# T6 sequence (P52564 whole entry): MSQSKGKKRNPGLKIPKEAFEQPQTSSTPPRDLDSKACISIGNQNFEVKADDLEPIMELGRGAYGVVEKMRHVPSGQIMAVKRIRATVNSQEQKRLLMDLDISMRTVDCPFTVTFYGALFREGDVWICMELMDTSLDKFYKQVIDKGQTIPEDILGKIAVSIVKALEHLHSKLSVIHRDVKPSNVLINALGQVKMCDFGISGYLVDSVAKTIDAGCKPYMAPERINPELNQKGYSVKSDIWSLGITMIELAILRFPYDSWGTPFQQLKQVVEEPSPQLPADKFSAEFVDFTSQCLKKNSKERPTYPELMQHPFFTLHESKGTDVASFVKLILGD
# T3 sequence (Q14164 whole entry): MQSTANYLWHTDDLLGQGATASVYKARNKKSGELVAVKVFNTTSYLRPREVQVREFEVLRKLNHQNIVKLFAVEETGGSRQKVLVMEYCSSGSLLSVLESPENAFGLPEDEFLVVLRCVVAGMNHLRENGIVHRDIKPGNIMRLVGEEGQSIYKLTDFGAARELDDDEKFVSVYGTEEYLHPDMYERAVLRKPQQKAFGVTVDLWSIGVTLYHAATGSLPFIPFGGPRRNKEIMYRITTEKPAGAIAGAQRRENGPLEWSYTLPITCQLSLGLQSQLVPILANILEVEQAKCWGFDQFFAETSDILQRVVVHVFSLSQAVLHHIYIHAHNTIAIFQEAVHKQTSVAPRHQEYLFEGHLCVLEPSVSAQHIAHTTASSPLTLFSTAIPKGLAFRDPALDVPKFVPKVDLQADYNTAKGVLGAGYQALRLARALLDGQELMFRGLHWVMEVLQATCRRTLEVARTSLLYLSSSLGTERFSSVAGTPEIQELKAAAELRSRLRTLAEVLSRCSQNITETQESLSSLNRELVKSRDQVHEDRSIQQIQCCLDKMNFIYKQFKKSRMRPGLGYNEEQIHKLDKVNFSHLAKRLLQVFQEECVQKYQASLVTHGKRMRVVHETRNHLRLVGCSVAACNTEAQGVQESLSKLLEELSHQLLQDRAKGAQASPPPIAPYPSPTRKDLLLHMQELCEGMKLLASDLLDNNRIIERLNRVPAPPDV
# T4 sequence (P45983 1-384 isoform P45983-2): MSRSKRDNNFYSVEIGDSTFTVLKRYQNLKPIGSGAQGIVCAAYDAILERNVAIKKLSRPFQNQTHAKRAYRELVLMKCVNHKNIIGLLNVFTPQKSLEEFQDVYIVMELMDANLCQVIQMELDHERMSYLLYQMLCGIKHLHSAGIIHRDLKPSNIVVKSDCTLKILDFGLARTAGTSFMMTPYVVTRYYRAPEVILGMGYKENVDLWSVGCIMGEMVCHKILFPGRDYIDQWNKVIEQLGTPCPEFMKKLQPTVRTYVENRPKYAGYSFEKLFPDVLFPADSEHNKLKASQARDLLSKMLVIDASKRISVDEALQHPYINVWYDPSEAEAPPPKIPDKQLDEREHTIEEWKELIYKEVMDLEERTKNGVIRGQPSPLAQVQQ
# T1 sequence (P04626 23-1255): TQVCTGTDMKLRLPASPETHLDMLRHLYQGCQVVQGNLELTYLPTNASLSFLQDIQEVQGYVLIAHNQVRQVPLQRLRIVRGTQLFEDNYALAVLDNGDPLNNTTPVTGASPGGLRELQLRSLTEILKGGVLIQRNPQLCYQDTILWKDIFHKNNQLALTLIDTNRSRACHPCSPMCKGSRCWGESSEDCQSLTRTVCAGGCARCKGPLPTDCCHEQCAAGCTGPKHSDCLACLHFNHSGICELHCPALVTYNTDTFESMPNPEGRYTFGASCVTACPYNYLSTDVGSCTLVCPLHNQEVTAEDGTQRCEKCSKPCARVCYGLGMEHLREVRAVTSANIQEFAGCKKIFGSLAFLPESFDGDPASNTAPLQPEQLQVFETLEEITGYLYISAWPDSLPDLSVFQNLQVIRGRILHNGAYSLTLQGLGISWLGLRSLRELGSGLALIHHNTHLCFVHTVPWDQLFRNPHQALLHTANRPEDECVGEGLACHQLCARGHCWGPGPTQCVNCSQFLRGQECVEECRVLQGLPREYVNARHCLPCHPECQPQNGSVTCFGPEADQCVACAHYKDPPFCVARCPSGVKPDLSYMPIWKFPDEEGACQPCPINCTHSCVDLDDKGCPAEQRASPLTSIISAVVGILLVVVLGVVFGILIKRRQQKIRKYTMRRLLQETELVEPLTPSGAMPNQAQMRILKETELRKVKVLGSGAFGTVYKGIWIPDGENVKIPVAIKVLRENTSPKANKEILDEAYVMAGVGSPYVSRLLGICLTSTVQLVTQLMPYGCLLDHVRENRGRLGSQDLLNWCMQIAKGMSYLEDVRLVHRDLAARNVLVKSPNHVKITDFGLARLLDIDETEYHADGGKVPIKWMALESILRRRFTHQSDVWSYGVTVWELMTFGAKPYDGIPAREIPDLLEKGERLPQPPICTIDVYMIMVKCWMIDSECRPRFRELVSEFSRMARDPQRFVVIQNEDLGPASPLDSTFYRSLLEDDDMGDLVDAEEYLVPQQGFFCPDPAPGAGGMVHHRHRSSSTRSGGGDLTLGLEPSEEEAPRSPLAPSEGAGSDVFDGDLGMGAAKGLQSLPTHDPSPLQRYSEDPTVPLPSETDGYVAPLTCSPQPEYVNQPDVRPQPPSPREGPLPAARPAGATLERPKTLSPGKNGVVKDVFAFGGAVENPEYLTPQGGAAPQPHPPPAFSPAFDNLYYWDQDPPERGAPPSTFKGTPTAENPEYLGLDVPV
# T5 sequence (P06493 whole entry): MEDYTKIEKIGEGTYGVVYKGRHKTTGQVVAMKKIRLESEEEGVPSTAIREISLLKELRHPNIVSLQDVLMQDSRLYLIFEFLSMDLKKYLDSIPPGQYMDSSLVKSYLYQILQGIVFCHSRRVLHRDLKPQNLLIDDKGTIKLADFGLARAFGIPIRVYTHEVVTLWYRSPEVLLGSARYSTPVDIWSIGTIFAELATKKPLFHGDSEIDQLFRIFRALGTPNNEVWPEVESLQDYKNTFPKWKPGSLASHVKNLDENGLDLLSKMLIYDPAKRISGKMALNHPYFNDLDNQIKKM
# T5 sequence (P14635 whole entry partner): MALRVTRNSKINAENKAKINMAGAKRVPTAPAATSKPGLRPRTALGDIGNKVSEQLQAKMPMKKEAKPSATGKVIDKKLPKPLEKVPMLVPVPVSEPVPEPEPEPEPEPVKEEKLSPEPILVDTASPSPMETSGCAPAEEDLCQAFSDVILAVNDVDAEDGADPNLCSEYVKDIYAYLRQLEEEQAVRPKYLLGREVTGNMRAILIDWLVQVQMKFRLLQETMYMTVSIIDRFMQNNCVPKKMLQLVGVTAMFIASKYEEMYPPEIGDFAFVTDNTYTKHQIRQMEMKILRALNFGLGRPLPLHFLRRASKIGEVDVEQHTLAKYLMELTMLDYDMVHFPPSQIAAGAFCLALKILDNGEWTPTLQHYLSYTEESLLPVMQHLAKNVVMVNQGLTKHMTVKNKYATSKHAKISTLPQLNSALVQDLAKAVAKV
# T2 sequence (O14920 whole entry): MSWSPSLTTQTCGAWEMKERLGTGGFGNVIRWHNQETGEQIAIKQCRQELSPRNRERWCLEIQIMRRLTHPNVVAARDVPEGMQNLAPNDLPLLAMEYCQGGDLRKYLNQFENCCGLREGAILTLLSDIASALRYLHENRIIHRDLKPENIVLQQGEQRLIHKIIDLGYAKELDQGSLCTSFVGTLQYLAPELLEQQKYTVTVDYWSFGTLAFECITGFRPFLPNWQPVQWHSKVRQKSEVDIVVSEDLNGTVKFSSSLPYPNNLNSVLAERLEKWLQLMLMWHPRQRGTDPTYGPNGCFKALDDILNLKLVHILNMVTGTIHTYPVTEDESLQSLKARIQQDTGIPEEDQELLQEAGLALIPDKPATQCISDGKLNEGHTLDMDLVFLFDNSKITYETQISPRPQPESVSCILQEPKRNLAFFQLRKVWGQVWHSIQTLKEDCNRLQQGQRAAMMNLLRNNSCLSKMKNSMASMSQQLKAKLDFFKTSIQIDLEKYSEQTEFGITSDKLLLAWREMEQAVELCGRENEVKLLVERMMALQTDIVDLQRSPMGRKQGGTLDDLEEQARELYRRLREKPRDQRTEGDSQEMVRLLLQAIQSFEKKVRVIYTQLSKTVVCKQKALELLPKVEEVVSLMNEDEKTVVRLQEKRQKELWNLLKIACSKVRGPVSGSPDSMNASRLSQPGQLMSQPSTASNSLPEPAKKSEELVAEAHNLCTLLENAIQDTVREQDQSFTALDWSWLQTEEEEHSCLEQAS
compound,measurement,setting,value
C=CC(=O)N[C@@H]1CCCN(c2ncnc3[nH]ccc23)C1 [RB1],inhibition at 1 µM,ERBB2,2.85%
same,activity at 1 µM,IKKβ,105%
same,activity at 1 µM,IKKε,97%
same,activity at 1 µM,JNK1α1,101%
same,activity at 1 µM,CDK1,96%
same,activity at 1 µM,MKK6,69%
same,Selectivity JAK2/JAK3,"[1]; EPO, pSTAT5",> 1000
same,IC50,[1]; Homo sapiens,> 50 µM
same,IC50,"[2]; U2OS, read-out: IC50 (nM) JAK1",> 50000 nM
same,IC50,"[2]; U2OS, read-out: IC50 (nM) JAK2",> 50000 nM
same,IFN-γ-induced phosphorylation of STAT1,"[2]; U2OS cells, RB1 at concentrations over 50 μM",not affected
same,Selectivity JAK1/JAK3,"[2]; U2OS, IFN-γ, pSTAT1",> 1000
same,Selectivity JAK2/JAK3,"[2]; U2OS, IFN-γ, pSTAT1",> 1000
same,Selectivity JAK2/JAK3,"[3]; GM-CSF, pSTAT5",> 1000
same,IC50,[3]; Homo sapiens,> 50 µM
